Results on nine molecules are retold here after patent US4761414A, “Substituted 1H-pyrimido[1,2-a-]-pyrido[3,4-e]pyrazine 6 oxides” (G. D. Searle & Co., priority 1986, dated 1988).

Each structure is given as a SMILES string. Values after ≈ are worked out from the molar mass of the structure shown.

Assay type in all cases: cell-based
Assay [1] deals with B. fragilis NCTC 10581. The assay can be described thus: MIC/MBC against Bacteroides fragilis strain A (96-well microtitre plates, anaerobic chamber). The conditions noted are these: Bacteroides fragilis; for MBC: NCTC10581, 99.9% reduction in viable count; for MIC: NCTC10581, 48 h, 48 hours, 37° C., anaerobic. As to the method: (§1) The screening panel utilized in this Example consisted of 5 strains of Bacteroides fragilis. All assays were carried out in 96-well microtitre plates. If an isolate was obtained from either a culture collection or clinical source, the isolate was immediately inoculated into Wilkens-Chalgren broth (Oxoid) and incubated at 37° C. in an anaerobic chamber in an atmosphere of 85% nitrogen, 10% carbon dioxide, and 5% hydrogen for 48 hours. At the end of this time, the viable count was about 10^12 organisms/ml broth. A 1 ml aliquot of each culture was placed in an ampoule and quick frozen in acetone-dry ice mixture and stored in liquid nitrogen. When an inoculum was utilized in an assay, one of the ampoules was thawed and diluted with fresh broth to yield a suspension having a count of 5×10^5 organisms/ml. A 100 μl aliquot of this suspension was inoculated into each well of the microtitre plate. A 2 mg sample of the test compound was dissolved in 0.2 ml of a suitable solvent such as dimethylsulfoxide, polyethylene glycol 200 or methanol. […] After addition of the test solution the final inoculum level was 10^5 cells/ml. The plates were incubated for 48 hours at 37° C. in the anaerobic chamber. The Minimum Inhibitory Concentration (MIC) was read visually. The MIC is defined as the lowest concentration at which there is no detectable growth. The Minimum Bactericidal Concentration (MBC) was determined by taking 50 μl aliquot from each well and placing it in fresh medium. […] The strains of Bacteroides fragilis utilized in the above procedure are identified by letter in accordance with the following legend: |A B. fragilis NCTC 10581

The test system of assay [2] is B. fragilis MZ-R ATCC 11295. Briefly: MIC/MBC against Bacteroides fragilis strain D. The conditions noted are these: for MBC: ATCC11295, 99.9% reduction in viable count; for MIC: ATCC11295, 48 h, 48 hours, 37° C., anaerobic. As to the method: The screening panel utilized in this Example consisted of 5 strains of Bacteroides fragilis. All assays were carried out in 96-well microtitre plates. If an isolate was obtained from either a culture collection or clinical source, the isolate was immediately inoculated into Wilkens-Chalgren broth (Oxoid) and incubated at 37° C. in an anaerobic chamber in an atmosphere of 85% nitrogen, 10% carbon dioxide, and 5% hydrogen for 48 hours. At the end of this time, the viable count was about 10^12 organisms/ml broth. A 1 ml aliquot of each culture was placed in an ampoule and quick frozen in acetone-dry ice mixture and stored in liquid nitrogen. When an inoculum was utilized in an assay, one of the ampoules was thawed and diluted with fresh broth to yield a suspension having a count of 5×10^5 organisms/ml. A 100 μl aliquot of this suspension was inoculated into each well of the microtitre plate. A 2 mg sample of the test compound was dissolved in 0.2 ml of a suitable solvent such as dimethylsulfoxide, polyethylene glycol 200 or methanol. […] After addition of the test solution the final inoculum level was 10^5 cells/ml. The plates were incubated for 48 hours at 37° C. in the anaerobic chamber. The Minimum Inhibitory Concentration (MIC) was read visually. The MIC is defined as the lowest concentration at which there is no detectable growth. The Minimum Bactericidal Concentration (MBC) was determined by taking 50 μl aliquot from each well and placing it in fresh medium.

The test system of assay [3] is B. fragilis WS-1. The assay can be described thus: MIC/MBC against Bacteroides fragilis strain E. The conditions noted are these: for MBC: WS1, 99.9% reduction in viable count; for MIC: WS1, 48 h, 48 hours, 37° C., anaerobic. The method, then:
as §1, with “|E” for “|A”, “WS-1*” for “NCTC 10581”

Assay [4] relates to Clostridium perfringens NCTC 523. The assay can be described thus: microbe, parasite or virus in culture. The conditions noted are these: Clostridium perfringens, NCTC523, Clostridium perfringens NCTC 523; procedures of Example 40.
Assay [5] deals with B. fragilis NCTC 9343. Briefly: MIC/MBC against Bacteroides fragilis strain B. The conditions noted are these: for MBC: NCTC9343, 99.9% reduction in viable count; for MIC: NCTC9343, 48 h, 48 hours, 37° C., anaerobic. The method, then: as §1, with “|B” for “|A”, “9343” for “10581”
The subject of assay [6] is Clostridium perfringens NCTC 8237. Briefly: microbe, parasite or virus in culture. The conditions noted are these: Clostridium perfringens, NCTC8237, Clostridium perfringens NCTC 8237; procedures of Example 40.

The MBC is the smallest concentration meeting the test's criterion for killing. A higher MBC goes with less potent killing. Regarding `CC1(C)CN=C2C(c3ccc(Cl)cc3)=[N+]([O-])c3cccnc3N2C1` [Example 18, 2,3-Dihydro-5-(4-chlorophenyl)-2,2-dimethyl-1H-pyrimido[1,2-a]pyrido[3,2-e]pyrazine 6-oxide], the minimal bactericidal concentration (MBC) in assay [1], in assay [2], in assay [3] and in assay [5] was less than 0.8 µg/mL throughout. Also, the MIC in assay [1] was less than 0.8 µg/mL; in assay [2] it was less than 0.8 µg/mL; in assay [3], less than 0.8 µg/mL; in assay [4] it was less than 0.8 µg/mL; in assay [5], less than 0.8 µg/mL; in assay [6], 6.2 µg/mL (≈ 18.2 µM).

Regarding `Cc1ccc(C2=[N+]([O-])c3cnccc3N3CC(C)(C)CN=C23)cc1` [Example 19, 2,3-Dihydro-2,2-dimethyl-5-(4-methylphenyl)-1H-pyrimido[1,2-a]pyrido[3,4-e]pyrazine 6-oxide], the minimum bactericidal concentration (MBC) in assay [1], in assay [2], in assay [3] and in assay [5] was 1.5 µg/mL (≈ 4.68 µM) in each case. For the same molecule, the MIC in assay [1] was 1.5 µg/mL (≈ 4.68 µM); in assay [2], 1.5 µg/mL (≈ 4.68 µM); in assay [3] it was 1.5 µg/mL (≈ 4.68 µM); in assay [4] it was 1.5 µg/mL (≈ 4.68 µM); in assay [5], less than 0.8 µg/mL; in assay [6], 1.5 µg/mL (≈ 4.68 µM).

Take `Cc1ccc(C2=[N+]([O-])c3cccnc3N3CC(C)(C)CN=C23)cc1` [Example 20, 2,3-Dihydro-2,2-dimethyl-5-(4-methylphenyl)-1H-pyrimido[1,2-a]pyrido[3,2-e]pyrazine 6-oxide]: the MBC is less than 0.8 µg/mL in assay [1], less than 0.8 µg/mL in assay [2], less than 0.8 µg/mL in assay [3] and 6.2 µg/mL (≈ 19.4 µM) in assay [5]. Moreover, the MIC in assay [1] was less than 0.8 µg/mL; in assay [2], less than 0.8 µg/mL; in assay [3] it was 1.5 µg/mL (≈ 4.68 µM); in assay [4], 1.5 µg/mL (≈ 4.68 µM); in assay [5], 6.2 µg/mL (≈ 19.4 µM); in assay [6], 1.5 µg/mL (≈ 4.68 µM).

As for `COc1ccc(C2=[N+]([O-])c3cccnc3N3CC(C)(C)CN=C23)cc1OC` [Example 22, 2,3-Dihydro-5-(3,4-dimethoxyphenyl)-2,2-dimethyl-1H-pyrimido[1,2-a]pyrido[3,2-e]pyrazine 6-oxide], the minimum bactericidal concentration (MBC) in assay [1] was 1.5 µg/mL (≈ 4.09 µM); in assay [2], less than 0.8 µg/mL; in assay [3], less than 0.8 µg/mL; in assay [5], less than 0.8 µg/mL. The MIC in assay [1] was 1.5 µg/mL (≈ 4.09 µM); in assay [2], less than 0.8 µg/mL; in assay [3], less than 0.8 µg/mL; in assay [4], less than 0.8 µg/mL; in assay [5], less than 0.8 µg/mL; in assay [6] it was 6.2 µg/mL (≈ 16.9 µM).

Take `CCC1(C)CN=C2C(c3ccccc3)=[N+]([O-])c3cnccc3N2C1` (stereo not drawn) [Example 23, 2,3-Dihydro-2-ethyl-2-methyl-5-phenyl-1H-pyrimido[1,2-a]pyrido[3,4-e]pyrazine 6-oxide]: the MBC was 1.5 µg/mL (≈ 4.68 µM) in assay [1], less than 0.8 µg/mL in assay [2], 3.1 µg/mL (≈ 9.68 µM) in assay [3] and less than 0.8 µg/mL in assay [5]. The MIC in assay [1] was 1.5 µg/mL (≈ 4.68 µM); in assay [2] it was less than 0.8 µg/mL; in assay [3], 1.5 µg/mL (≈ 4.68 µM); in assay [4], 1.5 µg/mL (≈ 4.68 µM); in assay [5] it was less than 0.8 µg/mL; in assay [6], 6.2 µg/mL (≈ 19.4 µM).

`CCC1(C)CN=C2C(c3ccccc3)=[N+]([O-])c3cccnc3N2C1` (stereo not drawn) [Example 24, 2,3-Dihydro-2-ethyl-2-methyl-5-phenyl-1H-pyrimido[1,2-a]pyrido[3,2-e]pyrazine 6-oxide]: the minimal bactericidal concentration (MBC) in assay [1], in assay [2], in assay [3] and in assay [5] was less than 0.8 µg/mL throughout. The MIC in assay [1] is less than 0.8 µg/mL; in assay [2], less than 0.8 µg/mL; in assay [3], less than 0.8 µg/mL; in assay [4], 1.5 µg/mL (≈ 4.68 µM); in assay [5], less than 0.8 µg/mL; in assay [6], 6.2 µg/mL (≈ 19.4 µM).

With `CCC1(CC)CN=C2C(c3ccccc3)=[N+]([O-])c3cnccc3N2C1` [Example 25, 2,3-Dihydro-2,2-diethyl-5-phenyl-1H-pyrimido[1,2-a]pyrido[3,4-e]pyrazine 6-oxide], the MBC in assay [1] is 3.1 µg/mL (≈ 9.27 µM); in assay [2], 1.5 µg/mL (≈ 4.49 µM); in assay [3], less than 0.8 µg/mL; in assay [5] it was 1.5 µg/mL (≈ 4.49 µM). The MIC in assay [1] is 1.5 µg/mL (≈ 4.49 µM); in assay [2], 1.5 µg/mL (≈ 4.49 µM); in assay [3], less than 0.8 µg/mL; in assay [4] it was 3.1 µg/mL (≈ 9.27 µM); in assay [5], 1.5 µg/mL (≈ 4.49 µM); in assay [6], 3.1 µg/mL (≈ 9.27 µM).

Take `CCC1(CC)CN=C2C(c3ccccc3)=[N+]([O-])c3cccnc3N2C1` [Example 26, 2,3-Dihydro-2,2-diethyl-5-phenyl-1H-pyrimido[1,2-a]pyrido[3,2-e]pyrazine 6-oxide]: the minimum bactericidal concentration (MBC) in assay [1] is less than 0.8 µg/mL; in assay [2], less than 0.8 µg/mL; in assay [3] it was less than 0.8 µg/mL; in assay [5] it was 1.5 µg/mL (≈ 4.49 µM). In addition, the MIC was less than 0.8 µg/mL in assay [1]; less than 0.8 µg/mL in assay [2]; less than 0.8 µg/mL in assay [3]; 1.5 µg/mL (≈ 4.49 µM) in assay [4]; 1.5 µg/mL (≈ 4.49 µM) in assay [5]; 1.5 µg/mL (≈ 4.49 µM) in assay [6].

For the molecule `[O-][N+]1=C(c2ccccc2)C2=NCC3(CCCCC3)CN2c2ccncc21` [Example 30, Spiro[cyclohexane-1,2'-[2,3]-dihydro-[5]-phenyl-[1H]pyrimido[1,2-a]pyrido[3,4-e]pyrazine [6]-oxide]], the minimum bactericidal concentration (MBC) in assay [1] is less than 0.8 µg/mL; in assay [2], less than 0.8 µg/mL; in assay [3] it was less than 0.8 µg/mL; in assay [5], 1.5 µg/mL (≈ 4.33 µM). Further, the MIC in assay [1] was less than 0.8 µg/mL; in assay [2] it was less than 0.8 µg/mL; in assay [3], less than 0.8 µg/mL; in assay [4], 6.2 µg/mL (≈ 17.9 µM); in assay [5] it was less than 0.8 µg/mL; in assay [6] it was 12.5 µg/mL (≈ 36.1 µM).
